Data published in paper PMC7998669, “7-(2-Anilinopyrimidin-4-yl)-1-benzazepin-2-ones Designed by a “Cut and Glue” Strategy Are Dual Aurora A/VEGF-R Kinase Inhibitors” (Molecules, 2021).
Converted amounts (≈) assume the structure as drawn.

Experiments:
[1] = kinetic solubility by nephelometry; assay type: physicochemical; conditions: phosphate buffer, 25 °C, pH 7.4, aqueous buffer, kinetic from dmso stock, phosphate buffer pH 7.4, 1% DMSO, mean of two measurements, range in brackets
Description: The kinetic solubility of test compounds was determined by nephelometry. Dilution series of test compounds in DMSO with eight to ten different concentrations were prepared. The dilutions were pipetted (2 µL) into the cavities of a 96 well plate (CorningTM UV-transparent flat-bottom microtiter plate; Corning Incorporated, Kennebunk, ME, USA). A phosphate buffer solution pH 7.4 (198 µL) was added, so that the DMSO concentration in the measured solutions was 1%. Three wells were filled with DMSO and phosphate buffer pH 7.4 (2:198) and measured as blank values. The 96 well plate prepared in this way was measured with the NEPHELOstar® Plus nephelometer (BMG Labtech GmbH, Ortenberg, Germany, software: Omega 5.11) at a temperature of 25 °C. Previously, the plate was shaken at 500 rpm for 10 s and the laser intensity was set to 80%. The beam focus was set to 2.50 mm. If the test substance is completely soluble, only a scattering close to the blank value is detected. As soon as a critical concentration is reached in which the kinetic solubility of the test compound is exceeded, solid particles precipitate. Undissolved particles in the sample scatter the laser beam. The intensity of the scattered light is determined, which is proportional to the number of particles in the solution. The blank values were determined and subtracted from the measured values of the test compounds. By measuring different concentrations of the test substances, different intensities of the scattered light, indicated as RNU (relative nephelometric units), were determined. Kick off curves were obtained by plotting concentrations against the RNU values. The point of intersection of the horizontal and of the ascending part of the kick-off curve indicated the kinetic solubility concentration.

CDK2/CycA = target: T1, CDK2/CycA (Homo sapiens, UniProt P24941); experiment: radiometric 33PanQinase protein kinase assay; assay type: biochemical; conditions: 1 µM ATP
T1 construct: host or cells: Sf9 (baculovirus)

CK2-alpha1 = target: T2, CK2-alpha1 (Homo sapiens, UniProt P68400); experiment: radiometric 33PanQinase protein kinase assay; assay type: biochemical; conditions: 1 µM ATP
T2 construct: host or cells: Sf9 (baculovirus)
T2 sequence (P68400 whole entry): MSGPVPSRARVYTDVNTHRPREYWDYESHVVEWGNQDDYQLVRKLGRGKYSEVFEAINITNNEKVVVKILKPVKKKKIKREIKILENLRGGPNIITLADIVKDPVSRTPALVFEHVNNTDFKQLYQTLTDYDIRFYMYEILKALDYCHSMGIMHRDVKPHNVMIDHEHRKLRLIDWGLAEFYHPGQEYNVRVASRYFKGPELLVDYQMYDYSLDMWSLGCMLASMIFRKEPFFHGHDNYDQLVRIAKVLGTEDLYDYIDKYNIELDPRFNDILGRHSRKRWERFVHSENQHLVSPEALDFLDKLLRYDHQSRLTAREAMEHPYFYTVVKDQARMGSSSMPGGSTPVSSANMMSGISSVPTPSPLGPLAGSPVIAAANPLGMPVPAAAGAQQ

IC50 (CDK2/CycA) [µM] | IC50 (CK2-alpha1) [µM] | Structure (SMILES) | solubility kinetic at 10 s [1] [µM]
 |  | COc1ccc(Nc2nccc(-c3ccc4c(c3)CCCC(=O)N4)n2)cc1O [Compound 2n, 7-[2-(3-Hydroxy-4-methoxyanilino)pyrimidin-4-yl]-1,3,4,5-tetrahydro-2H-1-benzazepin-2-one] | 92.6 (≈ 34.9 µg/mL)
60 | > 100 | O=C1CCCc2cc(-c3ccnc(Nc4ccccc4)n3)ccc2N1 [Compound 2a, 7-(2-Anilinopyrimidin-4-yl)-1,3,4,5-tetrahydro-2H-1-benzazepin-2-one] | ~50 (≈ 16.5 µg/mL)
